Experimental data: ChEMBL document CHEMBL4477199, “Design and synthesis of novel bicalutamide and enzalutamide derivatives as antiproliferative agents for the treatment of prostate cancer” (Eur J Med Chem, 2016)

Legend:
CWR22R [1] = assay: Antiproliferative activity against human 22Rv1 cells after 96 hrs by propidium iodide staining based fluorescence 2D monolayer assay; type: functional, cell-based; conditions: 22Rv1, 96 h
DU-145 [2] = assay: Antiproliferative activity against human DU145 cells after 96 hrs by propidium iodide staining based fluorescence 2D monolayer assay; type: functional, cell-based; conditions: DU-145, 96 h
LNCaP [3] = assay: Antiproliferative activity against human LNCAP cells after 96 hrs by propidium iodide staining based fluorescence 2D monolayer assay; type: functional, cell-based
VCaP [4] = assay: Antiproliferative activity against human VCaP cells after 96 hrs by propidium iodide staining based fluorescence 2D monolayer assay; type: functional, cell-based
[5] = molecular target: T1, Androgen receptor (Rattus norvegicus) (UniProt P15207); assay: (§1) Antagonist activity at rat androgen receptor fused with DNA-binding domain of GAL4 expressed in AR-UAS-bla GripTite 293 cells assessed as inhibition of R1881-induced receptor activation preincubated for 30 mins followed by R1881 addition measured after 16 to 24 hrs by betalactamase reporter gene assay; type: cell-based
T1 sequence (whole entry): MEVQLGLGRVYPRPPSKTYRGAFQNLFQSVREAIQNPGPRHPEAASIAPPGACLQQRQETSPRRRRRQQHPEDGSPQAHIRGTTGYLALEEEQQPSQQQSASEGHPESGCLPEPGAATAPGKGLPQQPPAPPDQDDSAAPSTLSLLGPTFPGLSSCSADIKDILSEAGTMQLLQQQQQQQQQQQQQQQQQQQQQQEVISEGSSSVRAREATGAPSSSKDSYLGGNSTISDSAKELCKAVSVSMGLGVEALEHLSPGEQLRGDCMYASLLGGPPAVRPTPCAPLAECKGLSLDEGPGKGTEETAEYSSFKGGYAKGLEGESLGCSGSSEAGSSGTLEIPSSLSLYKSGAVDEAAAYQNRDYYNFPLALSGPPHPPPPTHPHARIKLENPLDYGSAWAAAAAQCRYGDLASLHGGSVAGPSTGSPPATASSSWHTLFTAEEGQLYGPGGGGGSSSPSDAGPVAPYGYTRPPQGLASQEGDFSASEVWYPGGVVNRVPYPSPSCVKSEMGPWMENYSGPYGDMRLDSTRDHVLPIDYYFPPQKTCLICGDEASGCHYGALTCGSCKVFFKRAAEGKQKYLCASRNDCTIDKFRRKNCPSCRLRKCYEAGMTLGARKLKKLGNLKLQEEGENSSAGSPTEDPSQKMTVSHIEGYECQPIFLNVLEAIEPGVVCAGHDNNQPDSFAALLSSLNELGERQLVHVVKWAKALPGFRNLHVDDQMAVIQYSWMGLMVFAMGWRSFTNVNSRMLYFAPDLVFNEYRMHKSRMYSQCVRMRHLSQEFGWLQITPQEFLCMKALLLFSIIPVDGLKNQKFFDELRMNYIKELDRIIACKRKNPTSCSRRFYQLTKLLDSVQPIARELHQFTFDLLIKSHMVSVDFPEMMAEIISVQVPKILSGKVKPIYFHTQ

Androgen receptor = molecular target: T2, Androgen receptor (Rattus norvegicus, UniProt P15207); assay: as §1; type: cell-based
T2 sequence (P15207 whole entry): T1 sequence (whole entry)

[6] = Half life in human liver microsomes at 3 uM preincubated with compound followed by NADPH addition by LC-MS/MS analysis
HepG2 = assay: Cytotoxicity against human HepG2 cells assessed as reduction in cell viability after 72 hrs by MTT assay; type: functional, cell-based; conditions: HepG2, 72 h; for minimal effective concentration: read-out: MEC
in vitro = conditions: human
LNCaP [7] = assay: Antiproliferative activity against human LNCAP cells assessed as relative inhibition after 96 hrs by propidium iodide staining based fluorescence 2D monolayer assay; type: functional, cell-based
DU-145 [8] = assay: Antiproliferative activity against human DU145 cells assessed as relative inhibition after 96 hrs by propidium iodide staining based fluorescence 2D monolayer assay; type: functional, cell-based; conditions: DU-145, 96 h
CWR22R [9] = assay: Antiproliferative activity against human 22Rv1 cells assessed as relative inhibition after 96 hrs by propidium iodide staining based fluorescence 2D monolayer assay; type: functional, cell-based; conditions: 22Rv1, 96 h
VCaP [10] = assay: Antiproliferative activity against human VCaP cells assessed as relative inhibition after 96 hrs by propidium iodide staining based fluorescence 2D monolayer assay; type: functional, cell-based
[11] = Apparent permeability from apical to basolateral side in human Caco2 cells at 10 uM incubated for 120 mins by LC-MS/MS analysis; conditions: Caco-2
[12] = Apparent permeability from basolateral to apical side in human Caco2 cells at 10 uM incubated for 120 mins by LC-MS/MS analysis; conditions: Caco-2
[13] = Efflux ratio of apparent permeability from basolateral to apical side over apical to basolateral side in human Caco2 cells at 10 uM incubated for 120 mins by LC-MS/MS analysis; conditions: Caco-2
[14] = 96 h
Description: Solubility in RPMI1640 culture medium at <30 uM incubated for 4 days by microscopic analysis

[15] = 33000 µM
Description: Solubility in 100% DMSO at 33 mM at -20 degC

Structure (SMILES)	IC50 (CWR22R [1])	IC50 (DU-145 [2])	IC50 (LNCaP [3])	IC50 (VCaP [4])	inhibition [5]	IC50 (Androgen receptor)	IC70 (CWR22R [1])	IC70 (DU-145 [2])	IC70 (LNCaP [3])	IC70 (VCaP [4])	IC50 (LNCaP [7])	IC70 (LNCaP [7])	IC50 (DU-145 [8])	IC70 (DU-145 [8])	IC50 (CWR22R [9])	IC70 (CWR22R [9])	IC50 (VCaP [10])	IC70 (VCaP [10])	solubility [14]	solubility [15]	further results
CC(O)(CSc1ccccc1C(F)(F)F)C(=O)Nc1ccc(C#N)c(C(F)(F)F)c1 (stereo not drawn)	5.06 µM	7.73 µM	4.91 µM	7.51 µM	Dose-dependent effect	0.425 µM															half-life at 3 µM ([6]; liver microsomes): 3.66 min; AC50 (HepG2): 25.8 µM; minimal effective concentration (HepG2): 14.7 µM; microsomal CLint at 3 µM (in vitro; liver microsomes): 379 µL/min/mg
CC(O)(CS(=O)(=O)c1ccc(F)cc1)C(=O)Nc1ccc(C#N)c(C(F)(F)F)c1 (stereo not drawn) [BICALUTAMIDE]	49.6 µM	49.2 µM	45.3 µM	68.4 µM			65.1 µM	61.3 µM	59.1 µM	> 100 µM	47.3 µM	60.9 µM	46 µM	58.3 µM	48.5 µM	64.1 µM	64.7 µM	97.3 µM			
C[C@](O)(CSc1cccc(C(F)(F)F)c1)C(=O)Nc1ccc(C#N)c(C(F)(F)F)c1	13.1 µM	19.4 µM	14.3 µM	8.91 µM															Soluble	Soluble	half-life at 3 µM ([6]; microsomes): 4.59 min; Papp A→B at 2 h, 10 µM [11]: 6.84 ×10⁻⁶ cm/s; Papp B→A at 2 h, 10 µM [12]: 12.2 ×10⁻⁶ cm/s; efflux ratio at 2 h, 10 µM [13]: 1.78; AC50 (HepG2): 34.6 µM; minimal effective concentration (HepG2): 26.6 µM; microsomal CLint at 3 µM (in vitro; microsomes): 302 µL/min/mg
CC(O)(CSc1cccc(C(F)(F)F)c1)C(=O)Nc1ccc(C#N)c(C(F)(F)F)c1 (stereo not drawn)	5.56 µM	10.6 µM	5.03 µM	9.23 µM															Soluble	Soluble	half-life at 3 µM ([6]; microsomes): 5.97 min; Papp A→B at 2 h, 10 µM [11]: 3.92 ×10⁻⁶ cm/s; Papp B→A at 2 h, 10 µM [12]: 4.73 ×10⁻⁶ cm/s; efflux ratio at 2 h, 10 µM [13]: 1.21; AC50 (HepG2): 36.6 µM; minimal effective concentration (HepG2): 18.4 µM; microsomal CLint at 3 µM (in vitro; microsomes): 232 µL/min/mg
CC(O)(CS(=O)(=O)c1ccc(OC(F)(F)F)cc1)C(=O)Nc1ccc([N+](=O)[O-])cc1C(F)(F)F (stereo not drawn)	≥ 100 µM	≥ 100 µM	≥ 100 µM	≥ 100 µM			> 100 µM	> 100 µM	> 100 µM	> 100 µM	> 100 µM	> 100 µM	> 100 µM	> 100 µM	> 100 µM	> 100 µM	> 100 µM	> 100 µM	Soluble	Soluble	
CC(O)(COc1ccc(OC(F)(F)F)cc1)C(=O)Nc1ccc([N+](=O)[O-])c(C(F)(F)F)c1 (stereo not drawn)	7.53 µM	10.4 µM	17.7 µM	19.6 µM	Dose-dependent effect	0.625 µM													Soluble	Soluble	
CC(C)NCC(O)COc1cccc2ccccc12 (stereo not drawn) [PROPRANOLOL]																					Papp A→B at 2 h, 10 µM [11]: 40.3 ×10⁻⁶ cm/s; Papp B→A at 2 h, 10 µM [12]: 41.6 ×10⁻⁶ cm/s; efflux ratio at 2 h, 10 µM [13]: 1.03
CC(O)(COc1cccc(OC(F)(F)F)c1)C(=O)Nc1ccc([N+](=O)[O-])c(C(F)(F)F)c1 (stereo not drawn)	9.31 µM	13.1 µM	9.95 µM	9.6 µM	Dose-dependent effect	0.407 µM													Soluble	Soluble	
CC(O)(CSc1ccccc1C(F)(F)F)C(=O)Nc1ccc([N+](=O)[O-])cc1C(F)(F)F (stereo not drawn)	12 µM	17.5 µM	11.7 µM	12.8 µM	Dose-dependent effect	0.332 µM													Soluble	Soluble	
O=C(Nc1ccc([N+](=O)[O-])c(C(F)(F)F)c1)C(O)(CSc1ccccc1C(F)(F)F)C(F)(F)F (stereo not drawn)	1.28 µM	2.4 µM	0.719 to 0.72 µM	2.78 µM	Dose-dependent effect	0.245 µM	1.7 µM	2.76 µM	1.2 µM	5.73 µM	0.828 µM	1.33 µM	2.36 µM	2.7 µM	1.27 µM	1.65 µM	2.43 µM	4.8 µM	Soluble	Soluble	
CC(O)(CSc1ccccc1OC(F)(F)F)C(=O)Nc1ccc([N+](=O)[O-])cc1C(F)(F)F (stereo not drawn)	4.64 µM	6.57 to 6.58 µM	3.31 µM	5.27 µM			6.31 µM	8.16 µM	3.61 µM	13.8 µM	3.28 µM	3.55 µM	6.16 µM	7.59 µM	4.47 µM	5.88 µM	4.66 µM	9.39 µM	Soluble	Soluble	
CC(O)(COc1ccccc1C(F)(F)F)C(=O)Nc1ccc([N+](=O)[O-])c(C(F)(F)F)c1 (stereo not drawn)	20.2 µM	35.2 µM	22.6 µM	27.2 µM	Dose-dependent effect	0.183 µM													Soluble	Soluble	
